Assay results taken from patent US20090258836A1, “EFFECTIVE DELIVERY OF CROSS-SPECIES A3 ADENOSINE-RECEPTOR ANTAGONISTS TO REDUCE INTRAOCULAR PRESSURE” (The Trustees of The University of Pennsylvania, priority 2006, published 2009).
“Also recorded” adds a separate entry of the source. Values belong to the molecule of their own block, whether it stands above or below them.

Assays:
mouse IOP [1] = test: Mouse IOP after topical application, invasive servo-null micropipette system (SNMS); format: in vivo, Black Swiss mice; conditions: for Δ(IOP) Servo-Null: endpoint 10 min
Procedure: (§1) The test animals were black Swiss outbred mice of mixed sex, 7-9 weeks old and 25-30 g in weight, obtained from Taconic Inc. (Germantown, N.Y.), and maintained under 12:12-h light/dark illumination cycle and allowed unrestricted access to food and water. Mice were anesthetized with intraperitoneal ketamine ([…]) supplemented by topical proparacaine HCl 0.5% (Allergan, Bausch & Lomb) for the IOP measurements. IOP was measured invasively (SNMS) and non-invasively by pneumotonometry in separate animals.
By the SNMS approach (Avila et al., supra, 2001), the exploring micropipette, of […] outer diameter, was filled with a highly conducting solution and advanced across the cornea into the anterior chamber. A refined technique by Wang et al., Invest. Opthalmol. Vis. Sci. (serial online) (Aug. 31, 2006) available at www.iovs.org/egi/letters/46/9/3274#422, enhanced stability and reduce the background noise of the records, permitting fabrication of micropipettes whose resistance is 0.1-0.3 MΩ, rather than the 0.25-0.4 MΩ used initially. The filling solution was reduced from 3M KCl to 2M NaCl, rather than 3 M KCl. The resistance of the filled micropipette was balanced in a bridge circuit, and the tip was then advanced across the cornea. Upon entering the anterior chamber of the eye, the IOP forces the much lower-conducting aqueous humor into the micropipette tip, displacing the original filling solution. The micropipette resistance was thereby increased, unbalancing the bridge circuit and triggering a bellows to provide a counter-pressure, restoring the position of the filling solution and returning the resistance to its initial value. Thus, the value of the counter-pressure equals the IOP. As in the past (Avila et al., supra, 2001), the stability of the records permitted continuous measurements for tens of minutes during the course of drug applications.
(§2) Ketamine HCl was purchased from Phoenix Pharmaceutical Inc. (St. Joseph, Mo.). Other drugs were obtained from Sigma Chemical (St. Louis, Mo.). Drugs were applied topically with an Eppendorf pipette. […] The final droplet solution contained the drugs at the stated concentrations together with <2% DMSO and 0.0005% benzalkonium chloride at an osmolality of 295-300 mOsm. DMSO was omitted, altogether, from droplets containing the hydrophilic compounds adenosine, carbachol and carboxyfluorescein.
(§3) Effects on invasively-measured IOP were measured 10 min after topical application because after this time, the continued presence of the micropipette can be associated with a downward drift of the IOP, even under control conditions. In contrast, smaller droplets ([…]) were applied to the eye more frequently (three times instead of once) with the non-invasive technique, in order to forestall drying of the eye associated with the airflow from the pneumotonometer. With the non-invasive protocol, the IOP was stable for 30 min under control conditions.
In Table 1, an endpoint of 10 minutes was used for the invasive measurements in light of the above-discussed downward drift of the IOP, even under control conditions. Also the need for smaller, more frequent droplets are discussed above with regard to the non-invasive technique using the pneumotonometer. As above, with the non-invasive protocol, the IOP was stable for 30 minutes under control conditions.

mouse IOP [2] = test: Mouse IOP after topical application, non-invasive pneumotonometry; format: in vivo, Black Swiss mice; conditions: for Δ(IOP) Pneumotonometer: 30 min
Procedure: as §1
By comparison, IOP was measured non-invasively by pneumotonometry (OBT) (Avila et al., supra, 2005). As previously described, the commercially available tip of the ocular blood tomography (OBT) pneumotonometer (Blood Flow Analyzer [BFA] probe tip; Paradigm Medical Industries Inc.) was fit to a custom-built mount. Air flow from a constant pressure source was passed through the mount to reach a diaphragm forming the end of the BFA tip. The flow of air displaces the diaphragm outward, permitting escape of the air through holes in the wall of the probe tip into the atmosphere. Pressure was monitored with a transducer connected through a T-connection to the base of the BFA tip. The probe assembly was advanced to the cornea with a three-axis micromanipulator. The probe tip was advanced sufficiently to make contact with the tear film, as was indicated by a shift in the baseline output reading. In a refined method, the tip was withdrawn until the […] was visually displaced from the tear film. The output was then adjusted to zero before advancing the tip again. Contact with the cornea depresses the diaphragm of the BFA tip, occluding access of the air flow to the escape holes and raising the pressure at the base of the tip.
This approach was simplified to expedite identification of the endpoint, and the probe was subsequently advanced in about 10 standardized steps of approximately […] at intervals of about 10 seconds to identify the inflection region (Wang et al., supra, 2006). […] The pneumotonometric estimates of IOP were previously found to agree with manometric measurements in cannulated preparations and with estimates obtained by the servo-null technique (Avila et al., supra, 2005). Having established the baseline value of IOP, the position along the axis of advance of the micromanipulator was noted, and the probe was retracted from contact with the cornea. Subsequent measurements of IOP at later time points were obtained by advancing the probe tip to the same position, with the placement of the mouse maintained stereotactically. The measurements were conducted at 10-min intervals to avoid potential artifacts associated with prolonged pressure on the cornea.
as §2, §3
In Table 1, an endpoint of 10 minutes was used for the invasive measurements in light of the above-discussed downward drift of the IOP, even under control conditions. […]

cultured human NPE cells = conditions: cited from earlier work
[3] = tested on: HCE (human ciliary epithelial) cell line, NPE cells; conditions: Civan et al.; read-out: EC50 of isosmotic shrinkage of cultured human NPE cells; cited from earlier work
human A1 receptors = target: T1, human A1 receptors (Homo sapiens, UniProt P30542); conditions: literature; read-out: Ki for the binding to human A1 receptors; cited from earlier work
T1 sequence (P30542 1-326): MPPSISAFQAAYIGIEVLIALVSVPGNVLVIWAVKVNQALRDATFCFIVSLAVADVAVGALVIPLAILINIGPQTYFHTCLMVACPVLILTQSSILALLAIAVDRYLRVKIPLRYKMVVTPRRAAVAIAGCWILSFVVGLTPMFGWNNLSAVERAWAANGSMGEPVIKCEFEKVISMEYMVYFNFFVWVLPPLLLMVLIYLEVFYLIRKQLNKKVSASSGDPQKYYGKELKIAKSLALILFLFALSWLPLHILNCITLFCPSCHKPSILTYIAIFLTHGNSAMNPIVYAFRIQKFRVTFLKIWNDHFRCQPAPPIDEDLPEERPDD

[4] = tested on: HCE (human ciliary epithelial) cell line, NPE cells; test: Cell volume in isosmotic solution (isosmotic shrinkage), Coulter Counter; format: cell-based; conditions: 10 μM adenosine; 2 min preincubation with 300 nM MRS-1097, 100 nM MRS-1191 or 100 nM MRS-1523
Procedure: Cell Culture The HCE (human ciliary epithelial) cell line (Carre et al., supra, 1997) is an immortalized NPE cell line obtained from primary cultures of adult human epithelium. […] Eye Res. 57:3057-3063 (1993); Yantorno et al., Exp. Eye Res. 49:423-437 (1989)). […] Cells were passaged every 6-7 days and were studied 8-13 days after passage, after reaching confluence. An immortalized PE-cell line from a primary culture of bovine pigmented ciliary epithelium were also grown under matching conditions. Measurement of Cell Volume in Isosmotic Solution: The volume of PE and NPE cells was measured, since the movement of fluid underlies a change in PE and NPE cell volume, respectively. This is also thought to be the same as the movement of fluid which underlines the secretion of aqueous humor (FIG. 1). […] Parallel aliquots of cells were studied on the same day. One aliquot usually served as a control, and the others were exposed to different experimental conditions at the time of suspension. The same amount of solvent vehicle (dimethylformamide, DMSO or ethanol) was always added to the control and experimental aliquots. […] Cell volumes of isosmotic suspensions were measured with a Coulter Counter (model ZBI-Channelyzer II), using a 100 μm aperture (Civan et al., supra, 1994). As previously described (Wax et al., supra, 1993), the cell volume (vC) of the suspension was taken as the peak of the distribution function. Cell shrinkage was fit as a function of time (t) to a monoexpenential function: […]^0^)/τ] {1) where v∞ is the steady-state cell volume, v0 is the cell volume at the first point (t0) of the time course to be fit, and τ is the time constant of the shrinkage. For purposes of data reduction, the data were normalized to the first time point, taken to be 100% isotonic volume. Fits were obtained by nonlinear least-squares regression analysis, permitting both v∞ and τ to be variables. […] Med. Chem. 37:636-646 (1994; Jacobson et al., supra, 1995; Jacobson et al., FEBS Lett. 336:57-60 (1993)).

human A3 receptors = target: T2, human A3 receptors (Homo sapiens, UniProt P0DMS8); conditions: literature; read-out: Ki for the binding to human A3 receptors; cited from earlier work
T2 sequence (P0DMS8 1-318): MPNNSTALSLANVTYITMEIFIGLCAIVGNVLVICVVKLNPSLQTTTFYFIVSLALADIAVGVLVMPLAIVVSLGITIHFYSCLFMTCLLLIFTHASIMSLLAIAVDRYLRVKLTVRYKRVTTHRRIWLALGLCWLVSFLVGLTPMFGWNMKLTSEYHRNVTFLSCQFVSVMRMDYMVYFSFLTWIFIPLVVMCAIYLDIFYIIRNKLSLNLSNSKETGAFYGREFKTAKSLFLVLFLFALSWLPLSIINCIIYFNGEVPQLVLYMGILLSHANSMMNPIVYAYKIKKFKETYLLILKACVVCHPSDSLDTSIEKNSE

human A2A receptors = human A2A receptors (Homo sapiens, UniProt P29274); conditions: literature; read-out: Ki for the binding to human A2A receptors; cited from earlier work
Chain of human A2A receptors (P29274 whole entry): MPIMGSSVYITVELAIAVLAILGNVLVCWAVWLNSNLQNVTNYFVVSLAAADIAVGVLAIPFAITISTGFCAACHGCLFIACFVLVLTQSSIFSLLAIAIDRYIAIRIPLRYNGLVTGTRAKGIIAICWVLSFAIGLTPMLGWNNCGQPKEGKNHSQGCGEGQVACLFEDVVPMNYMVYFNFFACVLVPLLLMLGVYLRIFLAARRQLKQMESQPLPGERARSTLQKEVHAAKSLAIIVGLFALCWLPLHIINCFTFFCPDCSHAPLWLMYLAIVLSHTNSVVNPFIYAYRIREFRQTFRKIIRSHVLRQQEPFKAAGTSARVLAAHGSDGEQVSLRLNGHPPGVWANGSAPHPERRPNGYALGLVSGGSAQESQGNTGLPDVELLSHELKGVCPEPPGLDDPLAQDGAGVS

[5] = target: T3, human A2B adenosine receptor (Homo sapiens, UniProt P29275); test: Potency at human A2B adenosine receptor; format: binding; conditions: at 10 μM
T3 construct: expressed in transfected cells; host or cells: CHO cells (stably transfected)
T3 sequence (P29275 1-332): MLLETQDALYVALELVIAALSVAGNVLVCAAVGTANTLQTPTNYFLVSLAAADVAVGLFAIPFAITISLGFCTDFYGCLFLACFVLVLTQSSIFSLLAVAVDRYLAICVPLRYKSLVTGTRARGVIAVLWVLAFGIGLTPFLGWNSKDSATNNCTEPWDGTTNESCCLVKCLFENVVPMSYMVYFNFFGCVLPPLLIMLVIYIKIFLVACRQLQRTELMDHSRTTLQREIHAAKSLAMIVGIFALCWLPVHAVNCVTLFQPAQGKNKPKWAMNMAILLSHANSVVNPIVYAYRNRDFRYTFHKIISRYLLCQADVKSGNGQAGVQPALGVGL

rat A3 receptors = target: T4, rat A3 receptors (Rattus norvegicus, UniProt P28647); test: Radioligand binding, [125I]AB-MECA, CHO cells; conditions: means±SEM, N=3-4
T4 construct: expressed in transfected cells; host or cells: CHO cells (stably transfected)
T4 sequence (P28647 1-320): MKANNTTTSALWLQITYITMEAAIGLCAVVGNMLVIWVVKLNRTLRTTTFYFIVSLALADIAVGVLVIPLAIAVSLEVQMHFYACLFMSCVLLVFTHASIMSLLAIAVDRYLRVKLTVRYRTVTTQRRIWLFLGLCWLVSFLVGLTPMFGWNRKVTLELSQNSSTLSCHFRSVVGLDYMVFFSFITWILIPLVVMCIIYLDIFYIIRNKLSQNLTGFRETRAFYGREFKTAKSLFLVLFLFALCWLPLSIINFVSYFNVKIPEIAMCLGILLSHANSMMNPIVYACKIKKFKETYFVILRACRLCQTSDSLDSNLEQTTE

[6] = Dye penetration into the anterior chamber with or without corneal impalement; format: in vivo, mouse; conditions: 0.003% droplet, 5 min, impaled eyes
Procedure: Whether drug penetration into the eye was influenced by corneal impalement by a micropipette was further tested by topically applying a […] containing 0.003% carboxyfluorescein ([…]) to both eyes of two mice. Carboxyfluorescein is a highly polar molecule that crosses the barrier layers of the eye poorly. In each mouse, an exploring micropipette was first advanced into the aqueous humor of one eye while the companion eye was not impaled. After 5 min, the dye was washed out with isotonic saline.

Molecule: Nc1ncnc2c1ncn2[C@@H]1O[C@H](CO)[C@@H](O)[C@H]1O [Adenosine, adenosine]
increase in IOP over baseline (mouse IOP [1]; SNMS, after 10 min, adenosine 10 mM, Cl-IB-MECA 200 nM droplet): 24.0±4.7 mmHg | Δ(IOP) Servo-Null (mouse IOP [1]; topical droplet 10 mM): +22.4 ± 6.5 mm Hg | delay of the increase in IOP when measured non-invasively (mouse IOP [2]; topical): about 10 minutes | Δ(IOP) Pneumotonometer (mouse IOP [2]; topical droplets 10 mM): +4.8 ± 1.7 mm Hg | time constant (τ) of the adenosine-triggered shrinkage (cultured human NPE cells; 10 μM adenosine without antagonist): 3.8 ± 0.6 min | degree of shrinkage relative to control (cultured human NPE cells; 10 μM): increased the degree of shrinkage several-fold | EC50 [3]: 3 to 10 µM

Molecule: CCCOC(=O)c1c(-c2ccccc2)nc(CC)c(C(=O)SCC)c1CCC [MRS-1523]
effect on IOP in the mouse (in words) (mouse IOP [1]; tested by the inventors, technique not given): found to lower IOP in the mouse | Ki (human A1 receptors): 15.6 µM | effect of A3 antagonist on adenosine-stimulated isotonic shrinkage of NPE cells [4]: prevented the characteristic shrinkage; also recorded: blocked the shrinkage; also recorded: eliminated the actions of adenosine | Ki (human A3 receptors): 0.019 µM | Ki (human A2A receptors): 2.05 µM

potency at A2B [5]: < 10% | Ki (rat A3 receptors): 0.0039 ± 0.0012 µM
Molecule: OC1CSC(n2cnc3c(NCc4cccc(I)c4)nc(Cl)nc32)C1O (centres unmarked) [MRS-3820, 2-(2-chloro-6-(3-iodobenzylamino)-9H-purin-9-yl)tetrahydrothiophene-3,4-diol]
Δ(IOP) Servo-Null (mouse IOP [1]; topical droplet 5 μM (0.2% DMSO)): −2.2 ± 0.7 mm Hg | Δ(IOP) Servo-Null (mouse IOP [1]; topical droplet 25 μM (0.2% DMSO)): −4.9 ± 1.7 mm Hg | Δ(IOP) Servo-Null (mouse IOP [1]; topical droplet 75 μM (0.6% DMSO)): −3.1 ± 1.4 mm Hg | Δ(IOP) Servo-Null (mouse IOP [1]; topical droplet 250 μM (2% DMSO)): −1.5 ± 0.6 mm Hg | time to significant reduction of non-invasively measured IOP (mouse IOP [2]; 250 μM droplet): ≤ 20 min | reduction in IOP 30 minutes post-administration (mouse IOP [2]; 250 μM droplet, normal mice, non-invasive, baseline 16.7±1.1): 4.2±0.7 mmHg | reduction in IOP 20 min following application (mouse IOP [2]; 250 μM, non-invasive): 3.4±0.7 mm Hg | Δ(IOP) Pneumotonometer (mouse IOP [2]; topical droplets 25 μM (0.2% DMSO)): −0.6 ± 1.5 mm Hg

Molecule: carboxyfluorescein
fluorescence in the anterior chamber [6]: Green fluorescence was observed in the anterior chamber of the impaled mouse eyes
